Results from US10538497B2, “Compounds as indoleamine 2,3-dioxygenase inhibitors” (Merck Sharp & Dohme Corp., priority 2015, dated 2020).

Legend:
IDO1 [1] = molecular target: T1, IDO1 (Homo sapiens (Human), UniProt P14902); test: IDO1 Cellular Assay in Hela Cells Stimulated with IFNγ; type: cell-based; conditions: Hela cells stimulated with IFNγ 100 ng/mL; read-out: IDO1 HELA Cell Assay, IC50
Protocol: IDO1 Cellular Assay in Hela Cells Stimulated with IFNγ
Hela cells were cultured in complete Hela culture medium (90% EMEM, 10% heat-inactivated fetal bovine serum) and expanded to about 1×10^9 cells. The cells were then collected and frozen down at 10×10^6 cells/vial in 1 mL frozen medium (90% complete Hela culture medium, 10% DMSO)
Frozen Hela cells were thawed and transferred into Hela assay medium (99% complete Hela culture medium, 1% Pen/Strep) with 20 mL medium/vial of cells. The cells were spun down at 250 g in a table top centrifuge for 5 min and suspended in same volume of Hela assay medium. The cells were then counted and adjusted to a density of 2×10^5 cells/ml in Hela assay medium. Sterile L-tryptophan were added to the cells with final concentration of 300 uM L-tryptophan. A small aliquot (2 mL/plate) of Hela cells were set aside and were not treated with IFNγ, to serve as the Max-E control. The rest of Hela cells were added with sterile IFNγ (Cat #285-IF, R & D systems) with a final concentration of 100 ng/mL.
Hela cells with and without IFNγ were dispensed to the respective wells of 384-well assay plates containing the compounds. The plates were incubated for about 48 hours at a 37° C., 5% CO2 incubator. […] The plates were centrifuged for 1 min at 200×g. The resulting fluorescence was measured in a Spectramax plate reader (Molecular Devices) with a 400 nm excitation filter and a 510 nm emission filter.

IDO1 [2] = molecular target: T1, IDO1; test: IDO1 Enzyme Assay; conditions: HIS-tagged recombinant IDO1, 40 nM
[3] = read-out: IDO1 Enzyme Assay, IC50

T1 sequence (P14902 whole entry): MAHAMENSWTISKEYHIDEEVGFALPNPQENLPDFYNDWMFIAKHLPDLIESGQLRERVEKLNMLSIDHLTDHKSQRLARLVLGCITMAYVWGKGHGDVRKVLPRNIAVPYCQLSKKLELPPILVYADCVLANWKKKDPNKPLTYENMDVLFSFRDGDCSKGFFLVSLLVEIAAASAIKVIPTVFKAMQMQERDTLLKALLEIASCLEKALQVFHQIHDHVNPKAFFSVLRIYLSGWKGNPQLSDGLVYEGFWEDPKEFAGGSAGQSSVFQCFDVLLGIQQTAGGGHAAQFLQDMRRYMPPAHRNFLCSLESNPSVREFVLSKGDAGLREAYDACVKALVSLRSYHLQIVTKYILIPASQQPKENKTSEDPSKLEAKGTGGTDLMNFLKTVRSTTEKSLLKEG

| SMILES | IC50 (IDO1 [1]) [nM] | IC50 (IDO1 [2]; IDO1 Enzyme Assay, IC50, nM) [nM] | IC50 (IDO1 [2]; [3]) [nM] |
| --- | --- | --- | --- |
| O=C(CSc1nonc1/C(=N/O)Nc1ccc(F)c(Br)c1)NCC(O)CN1CCOCC1 (single isomer, unassigned) [Example 207, 2-((4-(N-(3-bromo-4-fluorophenyl)-N′-hydroxycarbamimidoyl)-1,2,5-oxadiazol-3-yl)thio)-N-(2-hydroxy-3-morpholinopropyl)acetamide] | 140 | 43.1 | – |
| O=C(COc1nonc1/C(=N/O)Nc1ccc(F)c(Br)c1)NCCO [Example 6, 2-((4-(N-(3-Bromo-4-fluorophenyl)-N′-hydroxycarbamimidoyl)-1,2,5-oxadiazol-3-yl)oxy)-N-(2-hydroxyethyl)acetamide] | 144 | – | 44 |
| CC(C)(CO)NC(=O)CSc1nonc1/C(=N/O)Nc1ccc(F)c(Br)c1 [Example 27, 2-((4-(N-(3-bromo-4-fluorophenyl)-N′-hydroxycarbamimidoyl)-1,2,5-oxadiazol-3-yl)thio)-N-(1-hydroxy-2-methylpropan-2-yl)acetamide] | 17.6 | – | 29.8 |
| CC(C)(O)CNC(=O)CSc1nonc1/C(=N/O)Nc1ccc(F)c(Br)c1 [Example 28, 2-((4-(N-(3-bromo-4-fluorophenyl)-N′-hydroxycarbamimidoyl)-1,2,5-oxadiazol-3-yl)thio)-N-(2-hydroxy-2-methylpropyl)acetamide] | 65.9 | – | 38 |
| O=S1(=O)NC[C@H](CSc2nonc2/C(=N/O)Nc2ccc(F)c(Br)c2)N1 [Example 33, (R)—N-(3-bromo-4-fluorophenyl)-4-(((1,1-dioxido-1,2,5-thiadiazolidin-3-yl)methyl)thio)-N′-hydroxy-1,2,5-oxadiazole-3-carboximidamide] | 26.3 | – | 53.5 |
| CC(C)(O)[C@@H](O)CSc1nonc1C(=NO)Nc1ccc(F)c(C#N)c1 [Example 38, (R)—N-(3-cyano-4-fluorophenyl)-4-((2,3-dihydroxy-3-methylbutyl)thio)-N′-hydroxy-1,2,5-oxadiazole-3-carboximidamide] | 118 | – | 144 |
| O=c1cc(C(F)(F)F)cc(CSc2nonc2/C(=N/O)Nc2ccc(F)c(Br)c2)[nH]1 [Example 88, N-(3-bromo-4-fluorophenyl)-N′-hydroxy-4-({[6-oxo-4-(trifluoromethyl)-1,6-dihydropyridin-2-yl]methyl}sulfanyl)-1,2,5-oxadiazole-3-carboximidamide] | 174 | – | 173 |
| O=c1c(NCCSc2nonc2/C(=N/O)Nc2ccc(F)c(Br)c2)c(NCC2CC2)c1=O [Example 89, N-(3-bromo-4-fluorophenyl)-4-{[2-({2-[(cyclopropylmethyl)amino]-3,4-dioxocyclobut-1-en-1-yl}amino)ethyl]sulfanyl}-N′-hydroxy-1,2,5-oxadiazole-3-carboximidamide] | – | – | 39 |
| O=C(CSc1nonc1C(=NO)Nc1ccc(F)c(Br)c1)N1CCC[C@@H]1CO [Example 135, N-(3-bromo-4-fluorophenyl)-N′-hydroxy-4-({2-[(2R)-2-(hydroxymethyl)pyrrolidin-1-yl]-2-oxoethyl}sulfanyl)-1,2,5-oxadiazole-3-carboximidamide] | – | 106 | – |
| O=C(CSc1nonc1C(=NO)Nc1ccc(F)c(Br)c1)NCCF [Example 137, 2-({4-[N-(3-bromo-4-fluorophenyl)-N′-hydroxycarbamimidoyl]-1,2,5-oxadiazol-3-yl}sulfanyl)-N-(2-fluoroethyl)acetamide] | – | 34.9 | – |
| O=C(CSc1nonc1/C(=N/O)Nc1ccc(F)c(Br)c1)N1CCOCC1 [Example 193, N-(3-bromo-4-fluorophenyl)-N′-hydroxy-4-[(2-morpholin-4-yl-2-oxoethyl)sulfanyl]-1,2,5-oxadiazole-3-carboximidamide] | 143 | – | 73.8 |
| NS(=O)(=O)N[C@H](CO)CSc1nonc1/C(=N/O)Nc1ccc(F)c(Br)c1 [Example 194, N-(3-bromo-4-fluorophenyl)-N′-hydroxy-4-{[(2R)-3-hydroxy-2-(sulfamoylamino)propyl]sulfanyl}-1,2,5-oxadiazole-3-carboximidamide] | 47.1 | – | 51 |
| O=C(CSc1nonc1/C(=N/O)Nc1ccc(F)c(Br)c1)N1C[C@@H](O)[C@@H](O)C1 [Example 195, N-(3-bromo-4-fluorophenyl)-4-((2-((3S,4R)-3,4-dihydroxypyrrolidin-1-yl)-2-oxoethyl)thio)-N′-hydroxy-1,2,5-oxadiazole-3-carboximidamide] | 342 | – | 92.5 |
| O=C(CSc1nonc1/C(=N/O)Nc1ccc(F)c(Br)c1)N1CC[C@H](O)[C@@H](O)C1 [Example 196, N-(3-bromo-4-fluorophenyl)-4-((2-((3S,4S)-3,4-dihydroxypiperidin-1-yl)-2-oxoethyl)thio)-N′-hydroxy-1,2,5-oxadiazole-3-carboximidamide] | 132 | – | 62.3 |
| O=C(CSc1nonc1/C(=N/O)Nc1ccc(F)c(Br)c1)N[C@H]1CCOC[C@H]1O [Example 198, 2-((4-(N-(3-bromo-4-fluorophenyl)-N′-hydroxycarbamimidoyl)-1,2,5-oxadiazol-3-yl)thio)-N-((3S,4S)-3-hydroxytetrahydro-2H-pyran-4-yl)acetamide] | 149 | – | 56 |
| C[C@H](O)CNC(=O)CSc1nonc1/C(=N/O)Nc1ccc(F)c(Br)c1 [Example 200, (S)-2-((4-(N-(3-bromo-4-fluorophenyl)-N′-hydroxycarbamimidoyl)-1,2,5-oxadiazol-3-yl)thio)-N-(2-hydroxypropyl)acetamide] | 14.9 | – | 29.9 |
| C[C@@H](O)CNC(=O)CSc1nonc1/C(=N/O)Nc1ccc(F)c(Br)c1 [Example 201, (R)-2-((4-(N-(3-bromo-4-fluorophenyl)-N′-hydroxycarbamimidoyl)-1,2,5-oxadiazol-3-yl)thio)-N-(2-hydroxypropyl)acetamide] | 26.8 | – | 22.4 |

More lines, now with the values ahead:

| IC50 (IDO1 [1]) [nM] | IC50 (IDO1 [2]; IDO1 Enzyme Assay, IC50, nM) [nM] | IC50 (IDO1 [2]; [3]) [nM] | SMILES |
| --- | --- | --- | --- |
| 111 | 39.3 | – | O=C(CSc1nonc1/C(=N/O)Nc1ccc(F)c(Br)c1)NCC(O)CN1CCOCC1 (single isomer, unassigned) [Example 206, 2-((4-(N-(3-bromo-4-fluorophenyl)-N′-hydroxycarbamimidoyl)-1,2,5-oxadiazol-3-yl)thio)-N-(2-hydroxy-3-morpholinopropyl)acetamide] |
| 94 | – | 47.6 | CC(=O)NCCOc1nonc1/C(=N/O)Nc1ccc(F)c(Br)c1 [Example 5, N-(2-((4-(N-(3-bromo-4-fluorophenyl)-N′-hydroxycarbamimidoyl)-1,2,5-oxadiazol-3-yl)oxy)ethyl)acetamide] |
| 13.1 | – | 32 | O=S1(=O)NC[C@H](CSc2nonc2/C(=N/O)Nc2ccc(F)c(Cl)c2)N1 [Example 32, (R)—N-(3-chloro-4-fluorophenyl)-4-(((1,1-dioxido-1,2,5-thiadiazolidin-3-yl)methyl)thio)-N′-hydroxy-1,2,5-oxadiazole-3-carboximidamide] |
| 87.6 | – | 118 | CC(C)(O)[C@H](O)CSc1nonc1C(=NO)Nc1ccc(F)c(C#N)c1 [Example 39, (S)—N-(3-cyano-4-fluorophenyl)-4-((2,3-dihydroxy-3-methylbutyl)thio)-N′-hydroxy-1,2,5-oxadiazole-3-carboximidamide] |
| – | – | 29.3 | O=c1c(NCCO)c(NCCSc2nonc2/C(=N/O)Nc2ccc(F)c(Br)c2)c1=O [Example 90, N-(3-bromo-4-fluorophenyl)-N′-hydroxy-4-{[2-({2-[(2-hydroxyethyl)amino]-3,4-dioxocyclobut-1-en-1-yl}amino)ethyl]sulfanyl}-1,2,5-oxadiazole-3-carboximidamide] |
| – | 120 | – | O=C(CSc1nonc1C(=NO)Nc1ccc(F)c(Br)c1)N1CCC[C@H]1CO [Example 134, N-(3-bromo-4-fluorophenyl)-N′-hydroxy-4-({2-[(2S)-2-(hydroxymethyl)pyrrolidin-1-yl]-2-oxoethyl}sulfanyl)-1,2,5-oxadiazole-3-carboximidamide] |
| – | 112 | – | O=C(CSc1nonc1C(=NO)Nc1ccc(F)c(Br)c1)N1CCCC1 [Example 136, N-(3-bromo-4-fluorophenyl)-N′-hydroxy-4-[(2-oxo-2-pyrrolidin-1-ylethyl)sulfanyl]-1,2,5-oxadiazole-3-carboximidamide] |
| 15.3 | – | 44.9 | C[C@H](CO)NC(=O)CSc1nonc1/C(=N/O)Nc1ccc(F)c(Br)c1 [Example 197, (R)-2-((4-(N-(3-bromo-4-fluorophenyl)-N′-hydroxycarbamimidoyl)-1,2,5-oxadiazol-3-yl)thio)-N-(1-hydroxypropan-2-yl)acetamide] |
| 508 | – | 57.8 | CNS(=O)(=O)NC(=O)CSc1nonc1/C(=N/O)Nc1ccc(F)c(Br)c1 [Example 199, 2-((4-(N-(3-bromo-4-fluorophenyl)-N′-hydroxycarbamimidoyl)-1,2,5-oxadiazol-3-yl)thio)-N-(N-methylsulfamoyl)acetamide] |
